Laboratory results as given in patent US9636324B2, “Use of 15-benzylidence-14-deoxy-11, 12 -dehyroandrographolide derivative in manufacture of medicaments for protecting liver and anti-hepatitis C virus” (Zhengzhou University, priority 2012, dated 2017).

Assays:
[1] = test system: mice with ConA induced liver damage; assay: ConA induced immunological liver damage model in mice; type: in vivo, Kunming mice
Experimental: Kunming mice of clean grade (male, weight 20±2 g, supplied by the Laboratory Animal Center, Henan Province) are randomly divided into groups with 6 mice in each group. Bifendate (Xinchang Pharmaceutical Factory of Zhejiang Pharmaceutical Co., Ltd, 200 mg/kg) is used as positive control, andrographolide (AD) is provided by Furen Pharmaceutical Group Co., Ltd, and the test compounds are synthesized by the inventors with purities higher than 99.0%. Normal control group and model group are intragastrically given 0.5% sodium carboxymethylcellulose (CMC-Na), and test groups are given 0.5% CMC-Na suspensions with AD (0.88 mmol/kg), and low dosage (0.66 mmol/kg) and high dosage (0.88 mmol/kg) of compound A, B and C, respectively. The drugs are given for 3 days. One hour after the last administration, all mice except those in the normal control group are injected with a single dose of ConA (20 mg/kg) through the caudal vein. After 8 h, the eyeball is enucleated to collect blood, which is centrifuged at 3000 rpm for 15 min to separate serum. ALT and AST are tested according to the kit specification, respectively (Nanjing Jiancheng Bioengineering Institute). The left lobe of liver is taken to prepare 10% homogenate using physiological saline, MDA is determined according to the kit specification (Nanjing Jiancheng Bioengineering Institute). To 50 μL liver homogenate is added 2 mL of 0.5 mol/L KOH-methanol solution and kept at 50° C. water bath to isomerize for 20 minutes, then absorbance (A value) is measured at 278 nm, using the A value per mL of homogenate to represent the PGE2 content. Experimental data are expressed as average±standard deviation (X±s), analyzed with SPSS 11.5 statistic software, with P<0.05 meaning significant difference.
Kunming mice of clean grade (male, weight 20±2 g) are randomly divided into normal group, model group, bifendate (Zhejiang Wanbang Pharmaceutical Co., Ltd) positive control group (200 mg/kg), AD group (0.88 mmol/kg), low dosage group (0.66 mmol/kg) and high dosage (0.88 mmol/kg) group of compound D. ALT, AST, and MDA assay kits are purchased from Nanjing Jiancheng Bioengineering Institute. Other agents, drugs and experimental methods are the same as in EXAMPLE 1.
In experimental investigation of both models, the following grouping method is used: Kunming mice of clean grade (male, weight 20±2 g) are randomly divided into normal group, model group, bifendate group (200 mg/kg), AD group (0.88 mmol/kg), low dosage group (0.66 mmol/kg) and high dosage group (0.88 mmol/kg) of compound E, with 8 mice in each group. Other agents, drugs and experimental methods are the same as in EXAMPLE 1 and in EXAMPLE 4, respectively.

[2] = test system: bovine viral diarrhea virus (BVDV-AV69); assay: CPE observation of effects on cytopathy caused by BVDV in MDBK cells
Experimental: Pharmaceutical effects of drugs of the invention against cytopathy caused by inoculation of BVDV virus are investigated using MDBK (NBL-1) cells (purchased from Chinese Academy of Science's Shanghai Center for Type Culture Collection) and bovine viral diarrhea virus (BVDV-AV69) (purchased from China Institute of Veterinary Drugs Control). Ribavirin (R; Henan RunHong Pharmaceutical Co., Ltd; batch number: E0909604) is used as positive drug control. MDBK cells are prepared as a suspension (1×10^5/mL) in RPMI1640 culture medium which contains 10% in volume fetal bovine serum (Zhejiang Tianhang Biotechnology Co., Ltd; batch number: 100524), 100 μg/mL streptomycin (Shenzheng Huayao Nanfang Pharmaceutical Co., Ltd; batch number: N09081), 100 U/mL penicillin (North China Pharmaceutical Co., Ltd; batch number: E0909604), and are seeded in 96 well plates (Costar, US) at 200 μL/well, placed in an incubator (Binder, Germany) at 37° C. with 5% CO2 to culture the cell. In 24 h when cells grow into a single layer, virus solution of 100 TCID50 (TCID50=10^−2.5) is added and incubated for 1.5 h. Maintenance medium with the drug is added at 200 μL/well after 3×PBS washes.
After digestion of MDBK cells with trypsin, cells with a concentration of 1×10^5/mL are seeded into 96 well plates at 200 μL/well, placed in an incubator at 37° C. with 5% CO2 for 24 h. After growing into a single layer, cells are attacked using 100 TCID50 (TCID50=10^−2.5) virus and incubated for 1.5 h. The virus-containing maintenance medium is discarded, and cells are washed with PBS, followed by addition of drug-containing maintenance medium with different concentrations, and incubation in 5% CO2 at 37° C. Normal cell control, virus control, drug treatment and ribavirin treatment groups are set. The cytopathy developing status is recorded everyday by observing under an inverted microscope.

[3] = test system: mice with ethanol induced liver damage; assay: Ethanol induced liver damage model in mice; type: in vivo, Kunming mice
Experimental: Kunming mice of clean grade (male, weight 20±2 g), after adaptively fed for 3 days, are randomly divided into normal group, model group, bifendate positive control group (200 mg/kg), AD group (0.88 mmol/kg), low (0.44 mmol/kg), median (0.66 mmol/kg) and high (0.88 mmol/kg) dosage groups of compound A, and median (0.66 mmol/kg) and high (0.88 mmol/kg) dosage groups of compound B, with 8 mice in each group. Positive group and each test group are intragastrically given with respective suspension prepared with 0.5% CMC-Na, and normal group and model group are given with 0.5% CMC-Na. The drugs are given for 3 days, and 1 h after the last administration, all mice except those in the normal group are intragastrically administrated with a single dose of 50% EtOH ([…]). After 16 h, the eyeball of the mice in each group is enucleated to collect blood, which is centrifuged at 3000 rpm for 15 min to separate serum. ALT and AST activities are tested respectively (Nanjing Jiancheng Bioengineering Institute). The left lobe of liver is taken to prepare 10% homogenate using physiological saline, MDA (Nanjing Jiancheng Bioengineering Institute) content is determined. Experimental data are expressed as average±standard deviation (X±s), analyzed with SPSS 11.5 statistic software, with P<0.05 meaning there is a significant difference. Other agents, drugs and experimental methods are the same as in EXAMPLE 1.

[4] = high dosage 0.88 mmol/kg, P<0.01
[5] = low dosage (printed 0.66 mol/kg), P<0.01
[6] = dosage groups not distinguished, P<0.01

C=C1CCC2C(C)(CO)C(O)CCC2(C)C1C=CC1=CC(=Cc2ccc(Cl)cc2)OC1=O (centres unmarked) [Compound A]
liver histopathologic section (HE staining) ([1]; HE stain, 200x, FIG. 5): no observation of extravasated blood in sinus hepaticus, liver cells show slightly granular degeneration and vacuolar degeneration, and no spotted and focal necrosis region is observed | serum enzyme level relative to normal level ([1]; high dosage 0.88 mmol/kg): essentially decreased to normal level | enzyme (ALT, AST) lowering effect compared to AD group ([1]; high dosage 0.88 mmol/kg vs AD 0.88 mmol/kg, P<0.05): better enzyme lowering effect | PGE2 content in liver homogenate vs model group [1, 4]: notably reduce PGE2 content | PGE2 content in liver homogenate vs model group ([1]; low dosage 0.66 mmol/kg, P<0.05 (A), P<0.01 (D)): notably reduce PGE2 content | MDA content in liver homogenate vs model group [1, 5]: more obvious effect | ability against liver lipid peroxidation compared with AD group [1, 5]: stronger resistant ability against liver lipid peroxidation | protective effect against liver damage induced by ConA (summary) ([1]; mice, intragastric, 3 days): notably protective effect | antiviral effect compared with AD ([2]; BVDV in MDBK cells): better antiviral effect than AD | pharmaceutical effect against cytopathy caused by virus compared with ribavirin ([2]; BVDV in MDBK cells): better than ribavirin | TI value (therapy index, TC50/IC50) ([2]; MDBK cells, BVDV-AV69, TC50 from MTT, IC50 from CPE): >127.6 | ALT activity in serum vs model group [3, 6]: effectively suppress | AST activity in serum vs model group [3, 6]: effectively suppress | MDA content in liver homogenate vs model group [3, 6]: effectively reduce the MDA content | AST activity decreasing magnitude compared with AD group [3, 4]: notably larger | ALT activity decreasing magnitude compared with AD group ([3]; high dosage 0.88 mmol/kg, P<0.01 (A), P<0.05 (B)): notably larger | protective effect against liver damage induced by ethanol (summary) ([3]; mice, intragastric, 3 days): protective effect
